Reference: patent US20240343707A1, “SUBSTITUTED PHENYL ETHYNYL PYRIMIDINES AS POTENT INHIBITORS OF ALPHAVIRUSES” (Southern Research Institute, priority 2023, published 2024)

Tests used:
Assay type in all cases: cell-based
[1] = test system: CHIKV; experiment: microbe, parasite or virus in culture; details: Chikungunya virus, read-out: CHIK EC50 (μM)
[2] = test system: VEEV; experiment: microbe, parasite or virus in culture; details: Venezuelan equine encephalitis virus, NHDF; for EC90: read-out: VEEV EC90 (μM); for log reduction at 10 µM: read-out: VEEV VTR (logs)
[3] = in vitro; details: human
[4] = test system: VEEV (TC-83); experiment: microbe, parasite or virus in culture; details: Venezuelan equine encephalitis virus, read-out: VEEV EC50 (μM)
[5] = test system: CHIKV; experiment: CHIKV virus titer reduction (VTR) assay in NHDF cells; details: Chikungunya virus; for EC90: read-out: CHIKV EC90 (μM); for log reduction at 10 µM: read-out: CHIKV VTR (logs)

## O=C1Cc2cc(NC(=O)c3cccc(C#Cc4ncccn4)c3)ccc2N1 [Compound 4, N-(2-oxoindolin-5-yl)-3-(2-pyrimidin-2-ylethynyl)benzamide]
[1]
  EC50: 0.66 µM
[2]
  EC90: 0.32 µM
  log reduction at 10 µM: 3.19
[3]
  CC50: > 40 µM
[4]
  EC50: 2.11 µM
[5]
  EC90: 0.095 µM
  log reduction at 10 µM: 10

## O=C1CCc2ccc(NC(=O)c3cccc(C#Cc4ncccn4)c3)cc2N1 [Compound 17, N-(2-oxo-3,4-dihydro-1H-quinolin-7-yl)-3-(2-pyrimidin-2-ylethynyl)benzamide]
[1]
  EC50: 0.83 µM
[2]
  EC90: 0.45 µM
  log reduction at 10 µM: 6.81
[3]
  CC50: > 40 µM
[4]
  EC50: 2.18 µM
[5]
  EC90: 0.61 µM
  log reduction at 10 µM: 6.94

## O=C1CCc2cc(NC(=O)c3cccc(C#Cc4ncccn4)c3)ccc2N1 [Compound 1, N-(2-oxo-3,4-dihydro-1H-quinolin-6-yl)-3-(2-pyrimidin-2-ylethynyl)benzamide]
[1]
  EC50: 0.23 µM
[2]
  EC90: 0.11 µM
  log reduction at 10 µM: 7.85
[3]
  CC50: > 40 µM
[4]
  EC50: 1.6 µM
[5]
  EC90: 0.18 µM
  log reduction at 10 µM: 3.15

## O=C(Nc1ccc(N2CCCCC2=O)cc1)c1cccc(C#Cc2ncccn2)c1 [Compound 24, N-[4-(2-oxo-1-piperidyl)phenyl]-3-(2-pyrimidin-2-ylethynyl)benzamide]
[2]
  EC90: 2.44 µM
  log reduction at 10 µM: 4.6
[5]
  EC90: 0.63 µM
  log reduction at 10 µM: 4.18

## O=C(Nc1ccc2c(c1)CCCCC2)c1cccc(C#Cc2ncccn2)c1 [Compound 8, 3-(2-pyrimidin-2-ylethynyl)-N-(6,7,8,9-tetrahydro-5H-benzo[7]annulen-3-yl)benzamide]
[1]
  EC50: 0.71 µM
[2]
  EC90: 2.43 µM
  log reduction at 10 µM: 7.97
[3]
  CC50: 6.97 µM
[4]
  EC50: > 40 µM
[5]
  EC90: 0.43 µM
  log reduction at 10 µM: 6.89

## O=C1CCCc2cc(NC(=O)c3cccc(C#Cc4ncccn4)c3)ccc2N1 [Compound 2, N-(2-oxo-1,3,4,5-tetrahydro-1-benzazepin-7-yl)-3-(2-pyrimidin-2-ylethynyl)benzamide]
[1]
  EC50: 0.51 µM
[2]
  EC90: 0.55 µM
  log reduction at 10 µM: 7.77
[3]
  CC50: > 40 µM
[4]
  EC50: 2.27 µM
[5]
  EC90: 0.15 µM
  log reduction at 10 µM: 7.7

## O=C(Nc1cccc(C#Cc2ncccn2)c1)c1cc(C2CC2)[nH]c(=O)c1 [Compound 18, 2-cyclopropyl-6-oxo-N-[3-(2-pyrimidin-2-ylethynyl)phenyl]-1H-pyridine-4-carboxamide]
[1]
  EC50: 28.1 µM
[2]
  EC90: 5.66 µM
  log reduction at 10 µM: 2.43
[3]
  CC50: > 40 µM
[4]
  EC50: 10.3 µM
[5]
  log reduction at 10 µM: 0.62

## O=C(NCc1ccc2c(c1)OC(F)(F)O2)c1cccc(C#Cc2ncccn2)c1 [Compound 7, N-[(2,2-difluoro-1,3-benzodioxol-5-yl)methyl]-3-(2-pyrimidin-2-ylethynyl)benzamide]
[1]
  EC50: 4.32 µM
[2]
  log reduction at 10 µM: 3.88
[3]
  CC50: > 40 µM
[4]
  EC50: > 40 µM
[5]
  log reduction at 10 µM: 4.43

## CCOP(=O)(OCC)c1ccc(NC(=O)c2cccc(C#Cc3ncccn3)c2)cc1 [Compound 6, N-(4-diethoxyphosphorylphenyl)-3-(2-pyrimidin-2-ylethynyl)benzamide]
[1]
  EC50: 0.44 µM
[3]
  CC50: > 40 µM
[4]
  EC50: 0.43 µM

## COc1cc(C#Cc2ncccn2)cc(C(=O)Nc2ccc3c(c2)CCC(=O)N3)c1 [Compound 14, 3-methoxy-N-(2-oxo-3,4-dihydro-1H-quinolin-6-yl)-5-(2-pyrimidin-2-ylethynyl)benzamide]
[1]
  EC50: 0.16 µM
[3]
  CC50: > 40 µM
[4]
  EC50: 0.44 µM

## O=C(Nc1ccc2c(c1)CCCN2)c1cccc(C#Cc2ncccn2)c1 [Compound 12, 3-(2-pyrimidin-2-ylethynyl)-N-(1,2,3,4-tetrahydroquinolin-6-yl)benzamide]
[1]
  EC50: 1.02 µM
[2]
  EC90: 0.72 µM
  log reduction at 10 µM: 5.47
[3]
  CC50: 38.8 µM
[4]
  EC50: 1.39 µM
[5]
  EC90: 0.74 µM
  log reduction at 10 µM: 7.58

## O=C1CCc2cc(C(=O)Nc3cccc(C#Cc4ncccn4)c3)ccc2N1 [Compound 5, 2-oxo-N-[3-(2-pyrimidin-2-ylethynyl)phenyl]-3,4-dihydro-1H-quinoline-6-carboxamide]
[1]
  EC50: 3.31 µM
[2]
  EC90: 1.15 µM
  log reduction at 10 µM: 6.43
[3]
  CC50: > 40 µM
[4]
  EC50: 3.98 µM
[5]
  EC90: 1.09 µM
  log reduction at 10 µM: 2.72

## CN1C(=O)CCc2cc(NC(=O)c3cccc(C#Cc4ncccn4)c3)ccc21 [Compound 3, N-(1-methyl-2-oxo-3,4-dihydroquinolin-6-yl)-3-(2-pyrimidin-2-ylethynyl)benzamide]
[1]
  EC50: 0.3 µM
[2]
  EC90: 0.33 µM
  log reduction at 10 µM: 8.58
[3]
  CC50: 35.3 µM
[4]
  EC50: 0.77 µM
[5]
  EC90: 0.13 µM
  log reduction at 10 µM: 8

## O=C(Nc1cccc(C#Cc2ncccn2)c1)C12CC3CC(CC(C3)C1)C2 [Compound 11, N-[3-(2-pyrimidin-2-ylethynyl)phenyl]adamantane-1-carboxamide]
[1]
  EC50: > 40 µM
[2]
  EC90: 20.1 µM
  log reduction at 10 µM: 1.02
[3]
  CC50: > 40 µM
[4]
  EC50: > 40 µM
[5]
  EC90: 20.3 µM
  log reduction at 10 µM: 0.3

## O=C1CCc2cc(S(=O)(=O)Nc3cccc(C#Cc4ncccn4)c3)ccc2N1 [Compound 10, 2-oxo-N-[3-(2-pyrimidin-2-ylethynyl)phenyl]-3,4-dihydro-1H-quinoline-6-sulfonamide]
[1]
  EC50: > 40 µM
[2]
  log reduction at 10 µM: 0.81
[3]
  CC50: 33.2 µM
[4]
  EC50: > 40 µM
[5]
  EC90: 1.13 µM
  log reduction at 10 µM: 0.08

## CC(C)(C#N)c1ccc(NC(=O)c2cccc(C#Cc3ncccn3)c2)cc1 [Compound 20, N-[4-(1-cyano-1-methyl-ethyl)phenyl]-3-(2-pyrimidin-2-ylethynyl)benzamide]
[1]
  EC50: 0.27 µM
[2]
  EC90: 0.06 µM
  log reduction at 10 µM: 8.08
[3]
  CC50: 17.8 µM
[4]
  EC50: 0.34 µM
[5]
  EC90: 0.07 µM
  log reduction at 10 µM: 10

## O=C(Nc1ccc2c(c1)CCCC2)c1cccc(C#Cc2ncccn2)c1 [Compound 22, 3-(2-pyrimidin-2-ylethynyl)-N-tetralin-6-yl-benzamide]
[1]
  EC50: 0.83 µM
[2]
  EC90: 0.7 µM
[3]
  CC50: > 40 µM
[4]
  EC50: 1.26 µM
[5]
  EC90: 0.7 µM

## O=C(Nc1ccc(C(F)(F)F)cc1)c1cccc(C#Cc2ncccn2)c1 [Compound 23, 3-(2-pyrimidin-2-ylethynyl)-N-[4-(trifluoromethyl)phenyl]benzamide]
[1]
  EC50: 1.2 µM
[2]
  EC90: 0.82 µM
[3]
  CC50: > 40 µM
[4]
  EC50: 0.71 µM
[5]
  EC90: 0.85 µM

## O=C1CC(Cc2ccc(NC(=O)c3cccc(C#Cc4ncccn4)c3)cc2)C(=O)N1 (stereo not shown) [Compound 13, N-[4-[(2,5-dioxopyrrolidin-3-yl)methyl]phenyl]-3-(2-pyrimidin-2-ylethynyl)benzamide]
[1]
  EC50: 2.8 µM
[2]
  EC90: 2.53 µM
  log reduction at 10 µM: 2.45
[3]
  CC50: > 40 µM
[4]
  EC50: 7.19 µM
[5]
  EC90: 0.16 µM
  log reduction at 10 µM: 2.76

## CC(C)(C)c1ccc(NC(=O)c2cccc(C#Cc3ncccn3)c2)cc1 [Compound 19, N-(4-tert-butylphenyl)-3-(2-pyrimidin-2-ylethynyl)benzamide]
[1]
  EC50: 1.04 µM
[2]
  EC90: 0.3 µM
  log reduction at 10 µM: 8.26
[3]
  CC50: 5.08 µM
[4]
  EC50: 0.93 µM
[5]
  EC90: 0.2 µM
  log reduction at 10 µM: 7.59

## O=C(Nc1cccc(C#Cc2ncccn2)c1)c1nc2c(s1)CCCC2 [Compound 9, N-[3-(2-pyrimidin-2-ylethynyl)phenyl]-4,5,6,7-tetrahydro-1,3-benzothiazole-2-carboxamide]
[1]
  EC50: 5.78 µM
[2]
  EC90: 7.37 µM
  log reduction at 10 µM: 2.59
[3]
  CC50: 9.59 µM
[4]
  EC50: > 40 µM
[5]
  EC90: 3.9 µM
  log reduction at 10 µM: 1.65

## O=C1CCc2cc(NC(=O)c3cc(C#Cc4ncccn4)cc(OC(F)(F)F)c3)ccc2N1 [Compound 16, N-(2-oxo-3,4-dihydro-1H-quinolin-6-yl)-3-(2-pyrimidin-2-ylethynyl)-5-(trifluoromethoxy)benzamide]
[1]
  EC50: 0.19 µM
[3]
  CC50: > 40 µM
[4]
  EC50: 0.16 µM

## COc1cc(C#Cc2ncccn2)cc(C(=O)Nc2ccc3c(c2)CCC(=O)N3C)c1 [Compound 15, 3-methoxy-N-(1-methyl-2-oxo-3,4-dihydroquinolin-6-yl)-5-(2-pyrimidin-2-ylethynyl)benzamide]
[1]
  EC50: 0.2 µM
[3]
  CC50: 26 µM
[4]
  EC50: 0.33 µM

## O=C(Nc1cccc(C#Cc2ncccn2)c1)c1ccc(N2CCCCC2=O)cc1 [Compound 21, 4-(2-oxo-1-piperidyl)-N-[3-(2-pyrimidin-2-ylethynyl)phenyl]benzamide]
[1]
  EC50: > 40 µM
[2]
  log reduction at 10 µM: 0.72
[3]
  CC50: > 40 µM
[4]
  EC50: 32.2 µM
[5]
  log reduction at 10 µM: 1.83
